From article PMC3566223 (Cancer prevention research (Philadelphia, Pa.), 2012)

Assays:
[1] = cited from earlier work
[2] = Pre- and post-trial self-reported questionnaire; type: in vivo, human; conditions: 24 participants completing the 2 week course; period of administration
[3] = Curcuminoid levels in 24 h urine collection; type: in vivo, human; conditions: 24 h urine between last two doses
[4] = Curcuminoid levels in colonic mucosa biopsies; type: in vivo, human; conditions: for Mucosal level, mean concentration ± SEM, unwashed, surgical biopsies / Mucosal level, mean concentration ± SEM, washed, surgical biopsies / Mucosal level, mean concentration ± SEM, unwashed, endoscopy biopsies / Mucosal level, mean concentration ± SEM, washed, endoscopy biopsies: patients, oral Curcumin C3 complex 2.35 g once daily 14 days; for Mucosal level, mean concentration ± SEM, unwashed, surgical biopsies / Mucosal level, mean concentration ± SEM, washed, surgical biopsies: n=5; for Mucosal level, mean concentration ± SEM, unwashed, endoscopy biopsies / Mucosal level, mean concentration ± SEM, washed, endoscopy biopsies: n=30
[5] = Curcuminoid levels in plasma; type: in vivo, human; conditions: of 24 participants
[6] = tested on: Apc^Min mouse model of inherited colorectal cancer; conditions: dietary curcumin; cited from earlier work
Adverse event monitoring = type: in vivo, human
[7] = one participant, right hemi-colectomy, no bowel preparation of biopsied area
[8] = AEs possibly or probably attributable

## COc1cc(/C=C/C(=O)CC(=O)/C=C/c2ccc(O)c(OC)c2)ccc1O [Curcumin, curcumin]
[1]
  Lipophilicity: highly lipophilic
[2]
  Experienced abdominal pain, post-trial responses: 21 % participants
  Experienced bowel incontinence, post-trial responses: 12 % participants
  Experienced constipation, post-trial responses: 13 % participants
  Experienced diarrhoea, post-trial responses: 38 % participants
[3]
  Urine level, mean: 27.0 ng/mL
[3]; 12 participants with quantifiable levels
  Urine curcumin level, range: 0.67 to 503.3 ng/mL
[4]; [7]
  Surface curcumin level, single participant: 551.1 µg/g
  Tissue curcumin level, single participant: 228.3 µg/g
[4]; oral Curcumin C3 complex 2.35 g daily 14 days, paired left-sided, n=12 pairs
  Mean pre-wash curcumin level, left-sided paired endoscopic biopsies: 9.0 µg/g
[4]; oral Curcumin C3 complex 2.35 g daily 14 days, paired right-sided, n=12 pairs
  Mean pre-wash curcumin level, right-sided paired endoscopic biopsies: 35.4 µg/g
[4]; paired right-sided biopsy samples
  Decrease in tissue curcumin after consecutive washes: 74%
[4]
  Mucosal level, mean concentration ± SEM, unwashed, surgical biopsies: 75.32 ± 39.71 µg/g
  Mucosal level, mean concentration ± SEM, washed, surgical biopsies: 12.50 ± 3.07 µg/g
  Mucosal level, mean concentration ± SEM, unwashed, endoscopy biopsies: 42.31 ± 23.68 µg/g
  Mucosal level, mean concentration ± SEM, washed, endoscopy biopsies: 19.91 ± 7.87 µg/g
[4]; time after last dose at which mucosa was biopsied
  Persistence of high curcumin levels in mucosa post-administration: up to 40 h
[5]
  Quantifiable in plasma (number of participants): 4
[6]
  Reduction of adenoma formation: 39-64%
Adverse event monitoring; 26 patients commenced curcumin
  Total gastrointestinal events, number of patients: 6
Adverse event monitoring; [8]
  Abdominal pain, number of events: 3
  Bloating, number of events: 1
  Diarrhoea, number of events: 3
  Dyspepsia, number of events: 1
  Flatulence, number of events: 1
  Nausea, number of events: 2
  Vomiting, number of events: 2
Adverse event monitoring; AEs possibly or probably attributable, Curcumin C3 complex 2.35 g daily 14 days
  Total gastrointestinal events, number of events: 13
Adverse event monitoring; Curcumin C3 complex 2.35 g daily 14 days
  Serious adverse events (SAEs) attributable to curcumin: no serious adverse events
Adverse event monitoring; NCI-CTC v3.0 grade
  Abdominal pain, grade: 1,2
  Bloating, grade: 2
  Diarrhoea, grade: 1
  Dyspepsia, grade: 1
  Flatulence, grade: 1
  Nausea, grade: 1,2
  Total gastrointestinal events, grade: 1 - 2
  Vomiting, grade: 1,2
Adverse event monitoring; in vivo
  Abdominal pain, number of patients: 3
  Bloating, number of patients: 1
  Diarrhoea, number of patients: 3
  Dyspepsia, number of patients: 1
  Flatulence, number of patients: 1
  Nausea, number of patients: 2
  Vomiting, number of patients: 2

## COc1cc(/C=C/C(=O)CC(=O)/C=C/c2ccc(O)cc2)ccc1O [Desmethoxycurcumin, desmethoxycurcumin]
[4]; of 35 mucosal samples, oral Curcumin C3 complex 2.35 g daily 14 days
  Detectable in mucosal samples (number of biopsies): 27 out of 35
[4]
  Mucosal level, mean concentration ± SEM, unwashed, surgical biopsies: 10.42 ± 6.52 µg/g
  Mucosal level, mean concentration ± SEM, washed, surgical biopsies: 1.27 ± 0.42 µg/g
  Mucosal level, mean concentration ± SEM, unwashed, endoscopy biopsies: 6.33 ± 3.75 µg/g
  Mucosal level, mean concentration ± SEM, washed, endoscopy biopsies: 4.03 ± 1.69 µg/g
